The conditions of series [1]: in 10% ethanol, 10% benzyl alcohol, 15% benzyl benzoate, and to 100% with castor oil (Faslodex®); cited from earlier work.
For series [2], the system named is MCF7 ER-positive breast cancer cells. The series can be described thus: MTS viability/proliferation assay of MCF7 cells. In kind it is cell-based. On the procedure:
(§1) Each sealed (10 cm) tube was immersed into a 10 cm culture tube containing 5 mL culture media (Dulbecco's Modified Eagle's medium (DMEM)+10% fetal bovine serum (FBS)+penicillin and streptomycin) approximating interstitial tissue surrounding the breast tissue. These tubes were set on a rocker in an incubator at 37° C. for 1, 2, 5, 10, 15, 21 and 30 days. After each time point media was collected and stored at −80° C. for further analysis for western blotting, viability/proliferation assay by MTS (3-(4,5-dimethylthiazol-2-yl)-5-(3-carboxymethoxyphenyl)-2-(4-sulfophenyl)-2H-tetrazolium) and quantitation by liquid chromatography-tandem mass spectrometry (LC-MS/MS). Additional iteration was to perform repeated washes on the same sealed tube and collect the culture medium at days 1, 2, 5, 10, 15, 21, and 30.
(§2) MCF-7 culture were propagated and seeded in 6 cm dishes at 300,000 cells per dish and allowed to adhere overnight as a monolayer. […] The drug concentrations and biological effects of the drug eluted from specific tubes were evaluated by Mass spectroscopy, Western Blot analysis and antiproliferative methods after exposure for 3 days.
At the end of the exposure, medium was replaced by MTS dye diluted (200 μL per well) in culture medium and incubated for up to 2 hours at 37° C. Optical density (490 nm) at the end of the time points (1, 1.5 and 2 hours) was measure and plotted as a ratio of absorbance (day/untreated).
Media containing tubing released drug at respective times was then added to cultured MCF7 ER-positive breast cancer cells and grown for 72 hours.
(§3) The medium was then used to culture MCF7 cells for 72 h, and the cells were assayed for proliferation by MTS assay (Panel A) and harvested for protein and western blotted for ER and PR expression (Panel B).

Series [3] in a line: Fulvestrant level in blood and mammary tissue of mice with Silastic implant. The series is classed as in vivo, CD-1 female mice. The conditions noted are these: 2 cm RX50 silastic tubing, 0.076 mg/cm dry fulvestrant, adjacent to inguinal mammary fat pad. Here is the method: (§4) Mice were monitored for body weight loss, activity, adequate grooming, and general behavior daily for the first week, followed by alternate days up to […]. Mice were euthanized and blood and organs were collected after 1, 2, 3, 4, 6 and 9 weeks (FIGS. 21 and 22).
Blood from anaesthetized CD-1 female mice were collected in Vacutainer® tubes coated with K2 ethylenediaminetetraacetic acid (EDTA) via cardiac puncture. Plasma was separated by centrifugation at 6,000×g for 10 minutes and stored at −80° C. […] Harvested tissue was homogenized in saline on ice and then subjected to liquid-liquid phase extraction and evaluated for their levels of fulvestrant by LC-MS/MS as described above.
After the indicated number of weeks the mice were euthanized and tissue was harvested.

Series [4] is described as follows: Visual examination of organs for overt pathology in implanted mice. The series is classed as in vivo, CD-1 female mice. As to conditions: Silastic depot with dry fulvestrant implanted subcutaneously, 9 week period.
Description: as §4

Series [5] can be described thus: Drug release from loaded Silastic tubing in culture media (LC-MS/MS). The series is classed as physicochemical. The conditions noted are these: for drug transfer from Silastic tubing: Silastic tubing depot approach. On the procedure:
as §1
(§5) A validated LC-MS/MS method was used for quantitation of fulvestrant. Sample was prepared by liquid-liquid extraction procedures with n-hexane-isopropanol (90:10, v/v). Extracts were concentrated (using a nitrogen stream at room temperature) and […] with 2 volumes of mobile phase buffer, and injected into a Sciex ultra performance liquid chromatorgraphy (UPLC) coupled with a Sciex API 5000™ triple quadrupole mass spectrometer. Data was acquired and analyzed by Analyst® MS software.
Media was harvested semi-weekly (84 hrs).

For series [6], the target named is T1, estrogen receptor (ER) (Homo sapiens, UniProt P03372).
T1 sequence (P03372 1-595): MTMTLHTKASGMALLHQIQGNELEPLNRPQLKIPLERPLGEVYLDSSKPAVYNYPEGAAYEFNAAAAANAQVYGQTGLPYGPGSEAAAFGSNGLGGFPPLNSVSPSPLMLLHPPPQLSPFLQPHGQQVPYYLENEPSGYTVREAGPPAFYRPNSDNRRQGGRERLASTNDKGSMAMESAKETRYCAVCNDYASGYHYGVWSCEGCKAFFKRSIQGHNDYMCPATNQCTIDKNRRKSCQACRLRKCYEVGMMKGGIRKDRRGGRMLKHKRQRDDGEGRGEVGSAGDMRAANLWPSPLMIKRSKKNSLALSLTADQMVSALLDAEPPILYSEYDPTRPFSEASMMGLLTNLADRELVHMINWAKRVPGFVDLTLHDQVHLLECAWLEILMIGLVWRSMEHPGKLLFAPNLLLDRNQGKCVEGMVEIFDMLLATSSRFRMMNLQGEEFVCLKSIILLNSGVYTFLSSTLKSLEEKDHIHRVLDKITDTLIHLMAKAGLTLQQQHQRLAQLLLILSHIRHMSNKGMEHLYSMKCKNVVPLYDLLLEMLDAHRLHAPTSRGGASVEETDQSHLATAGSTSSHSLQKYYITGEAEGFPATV
Briefly: Western blot for ER and PR expression in MCF7 cells. In kind it is cell-based. On the procedure: as §1, §2, §3

Series [7] in a line: Drug release from loaded Silastic tubing in saline (LC-MS/MS). In kind it is physicochemical. Here is the method: Every 84 hours the saline was collected and replaced with fresh saline.
as §5
Every 84 hours, saline was collected and replaced with fresh saline. Fulvestrant was quantified in collected saline by liquid chromatography mass spectrometry.

The conditions of series [8]: distribution coefficient between water and octanol; cited from earlier work.
For series [9], the system named is progesterone receptor (PgR) mRNA. Briefly: Progesterone receptor mRNA by qRT-PCR in MCF7 cells treated with medium containing released E2. In kind it is cell-based. The conditions noted are these: estradiol released from Silastic tubing into culture medium, MCF7 cells treated 24 hours. Here is the method:
The effect of estradiol released from Silastic® tubing loaded with estradiol and placed in culture medium was monitored, using conditions similar to that described in Example 2.
FIG. 23: Drug (E2) was loaded into 3 independent silastic tubes, dried, and sealed before incubating them in tissue culture medium for the indicated number of days. The tubes were then removed and MCF7 cells were treated with the medium. For the E2 experiment, MCF7 cells were first depleted of E2 by growing for 48 hours in FBS stripped media. Then, after 24 hours of treatment with media containing released E2, cells were harvested and progesterone receptor mRNA was quantified by quantitative real-time (qRT)-polymerase chain reaction (PCR) using TaqMan® probes from Applied Biosystems. As controls, MCF7 cells untreated and treated directly with 10 nM E2 were run.
Background: In qPCR the cycle at which signal appears reflects the starting amount.

Setting [10] is: MCF7 cells treated directly with 100 nM fulvestrant (positive control).

Consider four compounds from US11918770B2, “Implants for localized drug delivery and methods of use thereof” (The Regents of the University of California, priority 2014, dated 2024).

Entries after “also recorded” stand apart in the source; their conditions may differ.

On to `C[C@]12CC[C@@H]3c4ccc(O)cc4C[C@@H](CCCCCCCCC[S+]([O-])CCCC(F)(F)C(F)(F)F)[C@H]3[C@@H]1CC[C@@H]2O` (stereo partly shown) [fulvestrant], for which the solubility entry in [1] is on record as “up to 50 mg/mL”. In series [2] (setting [10]), the cell growth result is reported as “arrest cell growth”. In [2] (Silastic tubing 9 cm, 0.076 mg/cm dry fulvestrant, in culture media), the “tube equilibration time sufficient for growth inhibition and ER down regulation comparable to 100 nM fulvestrant” value is 2 to 5 days. Moreover, the antiproliferative effects entry in series [2] (fulvestrant added directly, concentration curves 10-50 nM and up to 10 μM, 72 hours) is “sufficient to block estrogen receptor signaling and proliferation”. In addition, the “growth inhibition and estrogen receptor down regulation” value in series [2] (medium with fulvestrant released from Silastic tubing (0.076 mg/cm dry fulvestrant), MCF7 cells 72 h) was “comparable to cells directly treated with fulvestrant (100 nM); also recorded: sufficient to abrogate ER signaling and reduce cell proliferation”. Further, in series [3] (all mice), the “fulvestrant in mammary tissue” value was “significant fulvestrant was detectable”. In addition, in series [3] (weeks 1-9, all but one mouse at week 4), the fulvestrant in blood is recorded as less than 4 nM. In series [4], the “overt pathology of organs (color, size, general condition)” value is on record as “none”. Besides, the “duration of sustained release into culture medium” value in series [5] (fulvestrant loaded Silastic tubing, media harvested semi-weekly (84 hrs), LC-MS/MS) is recorded as “up to 22 weeks”. Besides, in series [6] (setting [10]), the ER expression result is “sufficient to down regulate ER expression”. The “duration of consistent weekly fulvestrant release, as measured by ER and PR down regulation” value in series [6] (weekly release from Silastic tubing, cell culture models) is on record as “more than 4 weeks”. In addition, in [7] (based on rate of release and amount of fulvestrant in the device), the “extrapolated duration of release” value is given as “exceeds 10 years”. In addition, the “duration of steady release” value in series [7] (saline, 37 C) is listed as “exceeding 7 months”. Also, the “rate of fulvestrant released” value in series [7] (saline, 37 C, after 5 weeks, average) is reported as 7.77 ng/cm tubing*day. For the same compound, in series [8], the “log D” value is listed as “around 8.47”.
Turning to 4-hydroxytamoxifen, the “drug transfer from Silastic tubing” value in series [5] is reported as “amenable to drug transfer”.
For the compound `O=C(c1ccc(OCCN2CCCCC2)cc1)c1c(-c2ccc(O)cc2)sc2cc(O)ccc12` [raloxifene], the “drug transfer from Silastic tubing” value in series [5] was “amenable to drug transfer”. Further, the “log D” value in [8] is “around 5.406”.
`C[C@]12CC[C@@H]3c4ccc(O)cc4CC[C@H]3[C@@H]1CC[C@@H]2O` [estradiol]: in series [9], the “duration of sustained increase in progesterone receptor (PgR) mRNA expression” value was “up to 15 days”.
